Earlier results as cited in patent publication US20060008512A1, “Composition and methods for improved animal performance” (priority 2004, published 2006).
Like-named read-outs stand apart in the source and are kept apart here.

Assays:
[1] = test system: male Peterson broiler breeder chicks; settings: 0.1% dietary, cited from earlier work
male rats [2] = settings: treated from birth to day 25, cited from earlier work
suckling rat pups = settings: 0.1% solution in mother's drinking water, birth to 24 days, cited from earlier work
broiler chickens = settings: finishing-phase T3 administration alone; cited from earlier work
[3] = test system: growing cockerel and pullet chickens; settings: 10 mg/kg dietary thyroid hormone; cited from earlier work
pigs [4] = settings: 1,000 mg betaine/kg diet; cited from earlier work
dogs = settings: approximately 5 mg biotin/10 kg body weight for 3 to 5 weeks; cited from earlier work
laying hens = settings: 20 to 40 mg corticosterone/kg diet; cited from earlier work
[5] = test system: porcine thyroid follicles; settings: cited from earlier work
[6] = test system: female Sprague-Dawley rats; settings: fifteen days, cited from earlier work; for Concentration of reverse T3: control 71.7; for Concentration of T3: control 670
[7] = test system: isolated porcine thyroid follicles; settings: 10 microM of iodide, comparison value; cited from earlier work
humans = settings: daily doses of 100 to 200 mg iodide (from potassium iodide) per person; cited from earlier work
White Leghorn hens = settings: single i.m. injection releasing 60 mcg/kg body weight per day for 30 days, cited from earlier work
pigs [8] = settings: 5 or 8 mg iodide/kg feed for 3 months; cited from earlier work
[9] = serum adjusted to 10 mM sodium salicylate; cited from earlier work
male rats [10] = settings: 200 mg/kg body weight i.v.; blood 30-240 minutes later; cited from earlier work
neonatal male rats = settings: fed from birth to 24 days of age, cited from earlier work
cockerels = settings: fed from 1 day of age; by the 14th week; cited from earlier work
[11] = test system: young male Nile tilapia fish; settings: 100 or 150 mg thiouracil/kg diet for 40 days; by 98 days; cited from earlier work
broiler breeder hen = settings: 50 mg/kg feed; days 11 and 12; cited from earlier work

For CCCc1cc(=O)[nH]c(=S)[nH]1 [6-propyl-2-thiouracil], the “Increase in testis weight” value ([1]; 8 to 14 or 10 to 16 weeks of age) is listed as “about 35%”, the Testis weight ([1]; 8 to 14 weeks of age, control 20.0 g) is listed as 27.7 g and the Testis weight ([1]; 10 to 16 weeks of age, control 20.0 g) is listed as 27.7 g. For the same molecule, the “Increase in mean testis weight at 28 weeks” value ([1]; fed from 6 to 12 weeks of age) was 96%, the “Mean testis weight at 28 weeks” value ([1]; fed from 6 to 12 weeks of age, control 20.0 g) was 39.3 g and the “Increase of testis weight compared to controls” value (shortened to “Increase of testis weight”) (male rats [2]; at 90 days) was 40%. For the same molecule, the “Increase of testis weight” value (male rats [2]; at 135 days) was 60%, the “Increase of testis weight” value (male rats [2]; at 160 days) was 80% and the “Decline of average Leydig cell volume” value (suckling rat pups; at 180 days) was “about 20%”. The “Increase in number of Leydig cells per testis” value (suckling rat pups; at 180 days) was 69%, the “Decline in number of hCG-binding sites (LH receptors)” value (suckling rat pups) was 50% and the “Reduction of LH-stimulated testosterone production in Leydig cells” value (suckling rat pups) was 55%.
In the case of N[C@@H](Cc1cc(I)c(Oc2ccc(O)c(I)c2)c(I)c1)C(=O)O [T3, 3,5,3′-triiodo-L-thyronine], the “Reduction in body fat” value (broiler chickens) is listed as 17-25% and the “Reduction in body weight gain compared to controls” value [3] is listed as 55.24%.
For C[N+](C)(C)CC(=O)O [betaine], the “Decrease in feed conversion ratio” value (pigs [4]) is listed as 7.93% and the “Increase in average daily gain” value (pigs [4]) is listed as 13.20%.
For O=C(O)CCCC[C@@H]1SC[C@@H]2NC(=O)N[C@@H]21 [biotin], the Cases cured (dogs) is given as 60%.
In the case of C[C@]12C[C@H](O)[C@H]3[C@@H](CCC4=CC(=O)CC[C@@]43C)[C@@H]1CC[C@@H]2C(=O)CO [corticosterone], the “Laying hens with cessation of egg production” value (laying hens) is listed as 98%.
For CCCCC/C=C\C/C=C\C/C=C\CC(I)C1CCCC(=O)O1 (stereo not drawn) [delta-iodolactone], the “Dose lower than iodide for comparable apoptosis” value ([5]; 0.05 to 0.5 microM delta-iodolactone) is listed as “about 40 fold”.
For Cc1cc2c(C(C)C)c(O)c(O)c(C=O)c2c(O)c1-c1c(C)cc2c(C(C)C)c(O)c(O)c(C=O)c2c1O [gossypol acetic acid], the “Concentration of reverse T3” value ([6]; 5 mg/kg/day) is given as 0.0372 ng/mL, the “Concentration of T3” value ([6]; 5 mg/kg/day) is given as 0.43 ng/mL and the “Concentration of reverse T3” value ([6]; 10 mg/kg/day) is given as 0.0242 ng/mL. For the same molecule, the “Concentration of T3” value ([6]; 10 mg/kg/day) was 0.359 ng/mL.
For I [iodide], the Rate of apoptosis ([5]; 2 and 20 microM iodide) is given as 4-6%, the “Inhibitory effect of iodide on thyroid follicle proliferation” value [7] is given as 84±2% and the “Protection from radioactive iodide” value (humans) is given as “over 97%”.
In the case of CCNC(=O)[C@@H]1CCCN1C(=O)[C@H](CCCNC(=N)N)NC(=O)[C@H](CC(C)C)NC(=O)[C@@H](CC(C)C)NC(=O)[C@H](Cc1ccc(O)cc1)NC(=O)[C@H](CO)NC(=O)[C@H](Cc1c[nH]c2ccccc12)NC(=O)[C@H](Cc1c[nH]cn1)NC(=O)[C@@H]1CCC(=O)N1 [leuprolide acetate], the Body weight (White Leghorn hens) is listed as “no body weight loss” and the Egg production (White Leghorn hens; second week) is listed as 3.5%.
For [I-].[K+] [potassium iodide], the “Increase of iodine content in adipose tissue” value (pigs [8]) is given as 213%, the “Increase of iodine content in fresh muscle” value (pigs [8]) is given as 45% and the “Increase of iodine content in heart” value (pigs [8]) is given as 124%. For the same molecule, the “Increase of iodine content in kidneys” value (pigs [8]) was 127% and the “Increase of iodine content in liver” value (pigs [8]) was 207%.
For O=C([O-])c1ccccc1O.[Na+] [sodium salicylate], the “Rise of free dialyzable fraction of T4 in vitro” value [9] is given as 125%, the “Decrease in T3” value (male rats [10]) is given as 60% and the “Decrease in plasma T4 level” value (male rats [10]) is given as 20%. For the same molecule, the “Increase in reverse T3” value (male rats [10]) was 20%.
For O=c1cc[nH]c(=S)[nH]1 [thiouracil], the “Increase in testis size” value (neonatal male rats; at 100 days) is listed as 68%, the “Time for serum T4 and T3 to return to control levels after removal” value (neonatal male rats) is listed as ≤ 15 days and the “Weights of testes relative to controls” value (cockerels) is listed as “about 10 times”. The “Testis weight, gonadosomatic index, Sertoli, germ and Leydig cell numbers higher than control” value [11] was “approximately 100%”.
For Nicarbazin, the Hatchability (broiler breeder hen) is given as 31%.
